# Data published in patent publication US5593970A, “Heterocyclic anthracycline analogs” (priority 1994, dated 1997).
# Values joined by “and” are separate entries in the source; they are usually repeats but may differ in a detail not shown here. Identical values can stand only once. Counter-ions that a name gives are not always drawn. Like-named read-outs stand apart in the source and are kept apart here.
# What was measured:
# Experiment in all cases: Microculture tetrazolium assay
# Assay type in all cases: cell-based
# [1] = test system: SKVLB; details: for VLB/OV3: IC50 ratio SKVLB/SKOV3; for IC50: SKVLB
# [2] = test system: LOX
# [3] = test system: T47D
# [4] = test system: SKOV3
# [5] = test system: HT29
# [6] = Homo sapiens, SK-OV-3, SKOV3, read-out: IC50
# [7] = Homo sapiens, HT-29, HT29, read-out: IC50
Structure (SMILES),IC50 ([1]; read-out: IC50) [nM],IC50 ([2]; read-out: IC50) [nM],"IC50 [4, 6] [nM]","IC50 [5, 7] [nM]",VLB/OV3 [1],further results
"CC(=O)[C@@H]1Cc2c(O)c3c(c(O)c2[C@@H](O[C@H]2C[C@H](N)[C@H](O)[C@H](C)O2)O1)C(=O)c1ccccc1C3=O [BCH-1194, (1'S,1R,3S)-Methyl-[5,12-dihydroxy-1-(2',3',6'-trideoxy-3'-amino-4'-hydroxy-L-lyxohexopyranose)-6,11-dioxo-3,4,6,11-tetrahydroanthraceno-(2,3-C)pyran-3-yl]ketone hydrochloride]",1460,62.3,5.6,,260.71,"IC50 ([3]; Homo sapiens, read-out: IC50): 43.9 nM"
"CC(=O)C1Cc2c(O)c3c(c(O)c2C(OC2CCC(NC(=O)N(CCCl)N=O)CC2)O1)C(=O)c1ccccc1C3=O [BCH-2116, (1R,3S) and (1S ,3R)-3-aceto-6,11-dioxo-5,12-dihydroxy-1(4-chloroethylnitrosoureido-cyclohexyl-oxy)-3,4,6,11-tetrahydro-1H-anthra[2,3-C]pyran]",,,,,2.68,"IC50 ([5]; Homo sapiens, HT-29, HT29): 23300 nM; IC50 [1]: 50100 nM; IC50 ([3]; Homo sapiens): 22700 nM; IC50 ([4]; Homo sapiens, SK-OV-3, SKOV3): 18700 nM"
"CC(=O)CC1CC2=C(C(=O)c3cc4ccccc4c(O)c3C2=O)C(O[C@H]2C[C@H](N)[C@H](O)[C@H](C)O2)O1 (mixture of isomers) [BCH-2111, (1'S,1R,3S) and (1'S,1S,3R)-3-6-hydroxy-1-(2',3',6'-trideoxy-3'-amino-4'-hydroxy-L-lyxohexopyranose-5,12-dioxo-3,4,5,12-tetrahydroanthraceno[2,3-c]pyran-3-yl)propanone hydrochloride]",11800,,2140,954,5.51,"IC50 ([3]; Homo sapiens, read-out: IC50): 2420 nM"
CC(=O)C1CC2=C(C(=O)c3cc4ccccc4c(O)c3C2=O)C(OC[C@H](O)CO)O1 (some centres unmarked) [BCH-1669],1050,631,1210,591,0.87,
"C=CC[C@@H]1CC2=C(C(=O)c3cc4ccccc4c(O)c3C2=O)[C@@H](O[C@H]2C[C@H](N)[C@H](O)[C@H](C)O2)O1 [BCH-2005, (1'S,1R,3R)-3-(6-hydroxy-1-(2',3',6'-trideoxy-3'-amino-4'-hydroxy-L-lyxohexopyranose)-5,12-dioxo-3,4,5,12-tetrahydroanthraceno-[2,3-c]pyran-3-yl)propene hydrochloride]",364,138,341,245,1.07,
"COC(=O)[C@H](C)O[C@@H]1OC(C(=O)OC)(C(=O)OC)CC2=C1C(=O)c1cc3ccccc3c(O)c1C2=O [BCH-1668, (1R,1'S)-3,3-Bis-carbomethoxy-1-(1'-carbomethoxyethoxy)-5,12-dioxo-6-hydroxy-3,4,5,12-tetrahydroanthraceno[2,3-C]pyran]",6200,5200,6200,5700,,
C=CC[C@H]1Cc2c(O)c3c(c(O)c2[C@H](O[C@H]2C[C@H](NC(=O)NCCCl)[C@H](O)[C@H](C)O2)O1)C(=O)c1ccccc1C3=O [BCH-2110],,,,,1.14,"IC50 ([5]; Homo sapiens, HT-29, HT29): 1510 nM; IC50 [1]: 2830 nM; IC50 ([3]; Homo sapiens): 2460 nM; IC50 ([4]; Homo sapiens, SK-OV-3, SKOV3): 2480 nM"
COP(=O)(CC(=O)[C@H]1CC2=C(C(=O)c3cc4ccccc4c(O)c3C2=O)[C@H](O[C@H]2C[C@H](NC(=O)C(F)(F)F)[C@H](O)[C@H](C)O2)O1)OC [BCH-1679],,,,,,"IC50 ([5]; Homo sapiens, HT-29, HT29): 1100 nM; IC50 [1]: 3600 nM; IC50 [2]: 1100 nM; IC50 ([4]; Homo sapiens, SK-OV-3, SKOV3): 1200 nM"
CC(=O)C1Cc2c(O)c3c(c(O)c2C(O[C@H]2C[C@H](N4CCOCC4)[C@H](O)[C@H](C)O2)O1)C(=O)c1ccccc1C3=O (some centres unmarked) [BCH-1193],,,,,2.46,IC50 ([5]; HT29): 1040 nM and 940 nM; IC50 [1]: 4790 nM and 4920 nM; IC50 [3]: 2570 nM and 4160 nM; IC50 ([4]; SKOV3): 1950 nM

# Second part, led by results:
IC50 ([1]; read-out: IC50) [nM],IC50 ([2]; read-out: IC50) [nM],"IC50 [4, 6] [nM]","IC50 [5, 7] [nM]",Structure (SMILES),VLB/OV3 [1],further results
14300,,11400,8520,"C=CC[C@@H]1Cc2c(O)c3c(c(O)c2[C@@H](O[C@H]2C[C@H](NC(=O)C(F)(F)F)[C@H](O)[C@H](C)O2)O1)C(=O)c1ccccc1C3=O [BCH-2108, (1'S,1R,3R)-3-(5,12-dihydroxy-1-(2',3',6'-trideoxy-3'-trifluoroacetamido-4'-hydroxy-L-lyxohexopyranose)-6,11-dioxo-3,4,5,12-tetrahydroanthraceno-[2,3-c]pyran-3-yl)propene]",1.25,"IC50 ([3]; Homo sapiens, read-out: IC50): 11900 nM"
671,454,914,123,CC(=O)[C@H]1CC2=C(C(=O)c3cc4ccccc4c(O)c3C2=O)[C@H](O[C@@H]2O[C@@H](C)[C@@H](O)[C@@H](O)C2I)O1 (some centres unmarked) [BCH-1681],0.73,
4010,2310,2460,3050,"C[C@@H]1O[C@@H](O[C@H]2O[C@H](C(C)(F)F)CC3=C2C(=O)c2cc4ccccc4c(O)c2C3=O)C[C@H](NC(=O)C(F)(F)F)[C@@H]1O [BCH-1676, (1'S,1R,3S)-5,12-dioxo-3-(1,1-difluoroethyl)-6-hydroxy-1-(2',3',6'-trideoxy-3'-trifluoroacetamido-L-lyxohexopyranose)-3,4,5,12-tetrahydroanthraceno-[2,3-c]-pyran]",1.63,
2530,684,972,1840,"C=CC[C@H]1CC2=C(C(=O)c3cc4ccccc4c(O)c3C2=O)[C@H](O[C@H]2C[C@H](NC(=O)C(F)(F)F)[C@H](O)[C@H](C)O2)O1 [BCH-1686, (1'S,1S,3S)-3-(6-hydroxy-1-(2',3',6'-trideoxy-3'-trifluoroacetamido-4'-hydroxy-L-lyxohexopyranose)-5,12-dioxo-3,4,5,12-tetrahydroanthraceno-[2,3-C]pyran-3-yl)propene]",2.60,
990,232,343,1670,CC(=O)[C@@H]1Cc2c(O)c3c(c(O)c2[C@@H](O[C@@H]2O[C@@H](C)[C@@H](O)[C@@H](O)C2I)O1)C(=O)c1ccccc1C3=O (some centres unmarked) [BCH-1672],2.89,
3830,2260,2810,2240,"CC(=O)C1CC2=C(C(=O)c3cc4ccccc4c(O)c3C2=O)C(O[C@H]2CC[C@H](NC(=O)C(F)(F)F)[C@H](C)O2)O1 (mixture of isomers) [BCH-1680, (1'S,1S,3R) and (1'S, 1R, 3S)-methyl-{6-hydroxy-1(2',3',4',6'-tetradeoxy-4'-trifluoroacetamido-L-lyxohexopyranose)-5,12-dioxo-3,4,5,12-tetrahydroanthraceno-[2,3-c]pyran-3-yl}ketone]",1.36,
680,673,547,342,CC(=O)C1CC2=C(C(=O)c3cc4ccccc4c(O)c3C2=O)C(OC[C@@H](O)CO)S1 (some centres unmarked) [BCH-1670],1.24,
7790,2480,4710,5440,"C[C@@H]1O[C@@H](O[C@@H]2O[C@@H](C(C)(F)F)CC3=C2C(=O)c2cc4ccccc4c(O)c2C3=O)C[C@H](NC(=O)C(F)(F)F)[C@@H]1O (mixture of isomers) [BCH-1677, (1'S,1R,3S) and (1'S,1S,3R)-5,12-dioxo-3-(1,1-difluoroethyl)-6-hydroxy-1-(2',3',6'-trideoxy-3'-trifluoroacetamido-L-lyxohexopyranose)-3,4,5,12-tetrahydroanthraceno-[2,3-c]-pyran]",1.65,
